From ChEMBL document CHEMBL1201862, “PubChem BioAssay data set” (2004)
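Exposure lasted 48 hours, with cells grown in 96-well plates and compounds tested at five concentrations. Abbreviation: GI50, concentration required for 50% inhibition of growth.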 Activity calls are given as the source filed them. No stated cut-off is given here; in the data, active = GI50 up to about 1.1 µM and inactive = higher.

Experiments:
Test in all cases: NCI anticancer screen, dose series, 48 h
A498 = tested on: A498
A549 = tested on: A549
ACHN = tested on: ACHN
CAKI-1 = tested on: CAKI-1
CCRF-CEM = tested on: CCRF-CEM
COLO 205 = tested on: COLO 205
DLD-1 = tested on: DLD-1
DMS-114 = tested on: DMS-114
DMS-273 = tested on: DMS-273
EKVX = tested on: EKVX
HCC 2998 = tested on: HCC 2998
HCT-116 = tested on: HCT-116
HL-60 = tested on: HL-60
HOP-62 = tested on: HOP-62
HOP-92 = tested on: HOP-92
HT-29 = tested on: HT-29
IGROV-1 = tested on: IGROV-1
K562 = tested on: K562
KM-20L2 = tested on: KM-20L2
KM12 = tested on: KM12
LOX IMVI = tested on: LOX IMVI
LXFL 529 = tested on: LXFL 529
M14 = tested on: M14
M19-MEL = tested on: M19-MEL
MOLT-4 = tested on: MOLT-4
Malme-3M = tested on: Malme-3M
NCI-H226 = tested on: NCI-H226
NCI-H23 = tested on: NCI-H23
NCI-H460 = tested on: NCI-H460
NCI-H522 = tested on: NCI-H522
OVCAR-3 = tested on: OVCAR-3
OVCAR-4 = tested on: OVCAR-4
OVCAR-5 = tested on: OVCAR-5
RPMI-8226 = tested on: RPMI-8226
RXF 393 = tested on: RXF 393
RXF 631 = tested on: RXF 631
SF-268 = tested on: SF-268
SF-295 = tested on: SF-295
SF-539 = tested on: SF-539
SK-MEL-28 = tested on: SK-MEL-28
SK-MEL-2 = tested on: SK-MEL-2
SK-MEL-5 = tested on: SK-MEL-5
SK-OV-3 = tested on: SK-OV-3
SN12C = tested on: SN12C
SNB-19 = tested on: SNB-19
SNB-75 = tested on: SNB-75
SNB-78 = tested on: SNB-78
SR = tested on: SR
SW-620 = tested on: SW-620
TK-10 = tested on: TK-10
U-251 = tested on: U-251
UACC-257 = tested on: UACC-257
UACC-62 = tested on: UACC-62
UO-31 = tested on: UO-31
XF498 = tested on: XF498
HCT-15 = tested on: HCT-15
OVCAR-8 = tested on: OVCAR-8

With `CCC(C(=O)O)c1ccc(OC)cc1` (stereo not given) as the compound, how does the GI50 (A498) read?
The GI50 was > 100 µM (inactive).

What about the GI50 (A549) of the same compound?
The GI50 was > 100 µM (inactive).

And the GI50 (ACHN)?
Its GI50 is > 100 µM (inactive).

And the GI50 (CAKI-1)?
The GI50 was > 100 µM (inactive).

What about the GI50 (CCRF-CEM) of the same compound?
Its GI50 is > 100 µM (inactive).

What about the GI50 (COLO 205) of the same compound?
The GI50 was > 100 µM (inactive).

What about the GI50 (DLD-1) of the same compound?
The GI50 was > 100 µM (inactive).

What about the GI50 (DMS-114) of the same compound?
Its GI50 is > 100 µM (inactive).

What about the GI50 (DMS-273) of the same compound?
The GI50 was > 100 µM (inactive).

What about the GI50 (EKVX) of the same compound?
The GI50 was > 100 µM (inactive).

What about the GI50 (HCC 2998) of the same compound?
The GI50 was > 100 µM (inactive).

What about the GI50 (HCT-116) of the same compound?
Its GI50 is > 100 µM (inactive).

What about the GI50 (HL-60) of the same compound?
The GI50 was > 100 µM (inactive).

And the GI50 (HOP-62)?
Its GI50 is > 100 µM (inactive).

And the GI50 (HOP-92)?
The GI50 was > 100 µM (inactive).

What about the GI50 (HT-29) of the same compound?
The GI50 was > 100 µM (inactive).

And the GI50 (IGROV-1)?
Its GI50 is > 100 µM (inactive).

And the GI50 (K562)?
The GI50 was > 100 µM (inactive).

What about the GI50 (KM-20L2) of the same compound?
The GI50 was > 100 µM (inactive).

What about the GI50 (KM12) of the same compound?
Its GI50 is > 100 µM (inactive).

And the GI50 (LOX IMVI)?
The GI50 was > 100 µM (inactive).

And the GI50 (LXFL 529)?
Its GI50 is > 100 µM (inactive).

And the GI50 (M14)?
The GI50 was > 100 µM (inactive).

What about the GI50 (M19-MEL) of the same compound?
Its GI50 is > 100 µM (inactive).

What about the GI50 (MOLT-4) of the same compound?
The GI50 was > 100 µM (inactive).

What about the GI50 (Malme-3M) of the same compound?
The GI50 was > 100 µM (inactive).

What about the GI50 (NCI-H226) of the same compound?
The GI50 was > 100 µM (inactive).

What about the GI50 (NCI-H23) of the same compound?
Its GI50 is > 100 µM (inactive).

And the GI50 (NCI-H460)?
The GI50 was > 100 µM (inactive).

And the GI50 (NCI-H522)?
Its GI50 is > 100 µM (inactive).

And the GI50 (OVCAR-3)?
Its GI50 is > 100 µM (inactive).

And the GI50 (OVCAR-4)?
Its GI50 is > 100 µM (inactive).

What about the GI50 (OVCAR-5) of the same compound?
The GI50 was > 100 µM (inactive).

What about the GI50 (RPMI-8226) of the same compound?
Its GI50 is > 100 µM (inactive).

And the GI50 (RXF 393)?
Its GI50 is > 100 µM (inactive).

What about the GI50 (RXF 631) of the same compound?
The GI50 was > 100 µM (inactive).

What about the GI50 (SF-268) of the same compound?
Its GI50 is > 100 µM (inactive).

What about the GI50 (SF-295) of the same compound?
Its GI50 is > 100 µM (inactive).

What about the GI50 (SF-539) of the same compound?
The GI50 was > 100 µM (inactive).

What about the GI50 (SK-MEL-28) of the same compound?
Its GI50 is > 100 µM (inactive).

And the GI50 (SK-MEL-2)?
Its GI50 is > 100 µM (inactive).

What about the GI50 (SK-MEL-5) of the same compound?
The GI50 was > 100 µM (inactive).

And the GI50 (SK-OV-3)?
The GI50 was > 100 µM (inactive).

What about the GI50 (SN12C) of the same compound?
The GI50 was > 100 µM (inactive).

And the GI50 (SNB-19)?
The GI50 was > 100 µM (inactive).

What about the GI50 (SNB-75) of the same compound?
The GI50 was > 100 µM (inactive).

What about the GI50 (SNB-78) of the same compound?
The GI50 was > 100 µM (inactive).

And the GI50 (SR)?
Its GI50 is > 100 µM (inactive).

What about the GI50 (SW-620) of the same compound?
The GI50 was > 100 µM (inactive).

And the GI50 (TK-10)?
Its GI50 is > 100 µM (inactive).

What about the GI50 (U-251) of the same compound?
Its GI50 is > 100 µM (inactive).

What about the GI50 (UACC-257) of the same compound?
The GI50 was > 100 µM (inactive).

What about the GI50 (UACC-62) of the same compound?
Its GI50 is > 100 µM (inactive).

And the GI50 (UO-31)?
Its GI50 is > 100 µM (inactive).

What about the GI50 (XF498) of the same compound?
Its GI50 is > 100 µM (inactive).

Which results are given for `COC(=O)C1C(C)N1C` (stereo not given)?
GI50 (A549): > 100 µM (inactive); GI50 (CCRF-CEM): > 100 µM (inactive); GI50 (COLO 205): > 100 µM (inactive); GI50 (DLD-1): > 100 µM (inactive); GI50 (DMS-114): > 100 µM (inactive); GI50 (DMS-273): > 100 µM (inactive); GI50 (EKVX): > 100 µM (inactive); GI50 (HCC 2998): > 100 µM (inactive); GI50 (HCT-15): > 100 µM; GI50 (HL-60): > 100 µM (inactive); GI50 (HOP-62): > 100 µM (inactive); GI50 (HOP-92): > 100 µM (inactive); GI50 (HT-29): > 100 µM (inactive); GI50 (IGROV-1): > 100 µM (inactive); GI50 (K562): > 100 µM (inactive); GI50 (KM12): > 100 µM (inactive); GI50 (LOX IMVI): > 100 µM (inactive); GI50 (LXFL 529): > 100 µM (inactive); GI50 (M14): > 100 µM (inactive); GI50 (M19-MEL): > 100 µM (inactive); GI50 (MOLT-4): > 100 µM (inactive); GI50 (NCI-H226): > 100 µM (inactive); GI50 (NCI-H23): > 100 µM (inactive); GI50 (NCI-H460): > 100 µM (inactive); GI50 (NCI-H522): > 100 µM (inactive); GI50 (OVCAR-3): > 100 µM (inactive); GI50 (OVCAR-4): > 100 µM (inactive); GI50 (OVCAR-8): > 100 µM (inactive); GI50 (RPMI-8226): > 100 µM (inactive); GI50 (RXF 393): > 100 µM (inactive); GI50 (RXF 631): > 100 µM (inactive); GI50 (SF-539): > 100 µM (inactive); GI50 (SK-MEL-28): > 100 µM (inactive); GI50 (SK-MEL-5): > 100 µM (inactive); GI50 (SK-OV-3): > 100 µM (inactive); GI50 (SN12C): > 100 µM (inactive); GI50 (SNB-19): > 100 µM (inactive); GI50 (SNB-75): > 100 µM (inactive); GI50 (SNB-78): > 100 µM (inactive); GI50 (SW-620): > 100 µM (inactive); GI50 (TK-10): > 100 µM (inactive); GI50 (U-251): > 100 µM (inactive); GI50 (UACC-257): > 100 µM (inactive); GI50 (UACC-62): > 100 µM (inactive); GI50 (XF498): 64.3 µM (inactive)
